Assay results published in the NIST ThermoML archive (doi:10.1021/je400655j).
Numbers after ± are expanded uncertainties.

Assay: wn = mass fraction of the nth substance listed
Settings: 101 kPa, Liquid; for mass density: Vibrating tube method; for viscosity: Concentric cylinders viscometry

CC(CC(C)(C)C)CP(=O)([O-])CC(C)CC(C)(C)C.CCCCCCCCCCCCCC[P+](CCCCCC)(CCCCCC)CCCCCC + O
Settings | mass density, w2 = 0.05 [kg/m3] | mass density, w2 = 0.1 [kg/m3] | viscosity, w2 = 0.05 [mPa·s] | viscosity, w2 = 0.1 [mPa·s]
293 K | 899.1 ± 4.1 | 907.3 ± 3.9 | – | –
298 K | 895.8 ± 4.1 | 903.9 ± 3.9 | 281 ± 19 | 174 ± 12
303 K | 892.6 ± 4.1 | 900.7 ± 3.9 | 203 ± 14 | 137 ± 9
308 K | 889.3 ± 4.1 | 897.4 ± 3.9 | 150 ± 10 | 103 ± 7
313 K | 886.1 ± 4 | 894.1 ± 3.8 | 114 ± 8 | 78 ± 5
318 K | 882.9 ± 4 | 890.7 ± 3.8 | 87 ± 6 | 59 ± 4
323 K | 879.7 ± 4 | 887.4 ± 3.8 | 68 ± 4 | 47 ± 3
328 K | 876.5 ± 3.9 | 884 ± 3.8 | 54 ± 4 | 37 ± 2
333 K | – | – | 44 ± 3 | 31 ± 2
338 K | – | – | 36 ± 2 | 25 ± 2
343 K | – | – | 31 ± 2 | 23 ± 2

CC(=O)[O-].CCCCn1cc[n+](C)c1 [1-butyl-3-methylimidazolium acetate] + CC(CC(C)(C)C)CP(=O)([O-])CC(C)CC(C)(C)C.CCCCCCCCCCCCCC[P+](CCCCCC)(CCCCCC)CCCCCC
Settings | mass density, w1 = 0.2 [kg/m3] | mass density, w1 = 0.5 [kg/m3] | viscosity, w1 = 0.2 [mPa·s] | viscosity, w1 = 0.5 [mPa·s]
293 K | 908.8 ± 3.8 | 937.1 ± 3 | – | –
298 K | 905.6 ± 3.8 | 933.6 ± 3 | 160 ± 11 | 33 ± 2
303 K | 902.4 ± 3.7 | 930.1 ± 3 | 123 ± 8 | 27 ± 2
308 K | 899.3 ± 3.7 | 926.6 ± 2.9 | 97 ± 6 | 22 ± 2
313 K | 896.1 ± 3.7 | 923.1 ± 2.9 | 77 ± 5 | 19 ± 1
318 K | 893 ± 3.7 | 919.6 ± 2.9 | 63 ± 4 | 17 ± 1
323 K | 889.9 ± 3.6 | 916.1 ± 2.9 | 52 ± 3 | 15 ± 1
328 K | 886.7 ± 3.6 | 912.6 ± 2.9 | 44 ± 3 | 13 ± 1
333 K | 883.5 ± 3.6 | 909.2 ± 2.8 | 37 ± 2 | 12 ± 1
338 K | 880.3 ± 3.6 | 905.7 ± 2.8 | 32 ± 2 | 11 ± 1
343 K | 877.1 ± 3.5 | 902.2 ± 2.8 | 28 ± 2 | 10 ± 1
